In US6787564B2, “Optically active clausenamides, process of the preparation thereof, pharmaceutical composition containing the same and their medical use” (Institute of Materia Medica, Chinese Academy of Medical …, priority 2002, dated 2004):

Key:
[1] = system: Human embryonic neural stem cells; assay: colony-form frequency in human embryonic neural stem cells; format: cell-based; settings: 1 μM; for Colonies, 6 weeks / Colonies, 4 weeks / Colonies, 3 weeks: N 4; for Colonies, 6 weeks: Control(DMSO) 22.25 ± 4.86; for Colonies, 4 weeks: Control(DMSO) 30.33 ± 4.99; for Colonies, 3 weeks: Mean ± SD, Control(DMSO) 43.00 ± 4.97
Method: Human embryonic brain neural stem cells(NSC) were dissociated enzymatically with 0.05% trypsin-0.53 mM EDTA and cultured in the DMEM/F12 medium with N2 supplement (GIBCO), fibroblast growth factor-2 (20 ng/ml), epidermal growth factor (20 ng/ml) at 37° C. The media were changed once every week. The single cell suspension from neurosphere cells of NSC was dissociated by 0.1% trypsin. 2×10^4 cells were seeded in a well of a 96-well plate. After 24 hours, the dose at 1 μM of tested chemical was added in a well. 6 chemicals, (−)neoclausenamide(−), (+)neoclausenamide(+), (−)epineoclausenamide(−), (+)epineoclausenamide(+), (−)cisneoclausenamide(−) and (+)cisneoclausenamide(+), were detected. 4 wells were used each group. The media with tested chemical were changed once every week. The colonies of NSC were formed and counted under a microscopy at 3 weeks, 4 weeks and 6 weeks.

[2] = system: dentate gyrus of hippocampus; assay: induction of LTP in hippocampal of rat (population spike amplitude); format: in vivo, SD rats; settings: I.C.V.; means ± SD
From the text: Adult male SD rats were anesthetized to maintain a surgical level. A stainless steel cannula-recording electrode was placed in DG (dentate gyrus) of hippocampus using a stereotaxic instrument. The combination of cannula-recording electrode was constructed by insulating the outside of the cannula, except at the tip and top. In the top noninsulated area, a stainless steel wire was wrapped around the cannula and connected to the amplifier via an amphenol connector. The four pairs optically active clausenamides shown in table 9 was delivered by I.C.V. Responses were evoked via direct stimulation of the performant path (PP) using a stainless steel bipolar stimulating electrode. Constant current stimulation provided by a stimulator was delivered to the stimulating electrode through a Stimulus Isolation Unit.
The stimulating electrode was adjusted until a characteristic EPSP was observed under constant current. The evoked responses were amplified on a series alternating current preamplifier, using a microcomputer, and then stored for off-line analysis using DataWave software. The current intensity that elicited a 50% maximal response in each animal was determined and used for all subsequent stimulation. To measure treatment effects, responses were evoked once every 30 sec throughout the entire experiment, and population spike amplitude(PSA) were calculated.

[3] = system: animals with anisodine-induced memory impairment; assay: memory impairment induced by anisodine in water maze test; format: in vivo
From the text: (§1) This invention used one trial avoidance task—step-down and step-through tests and water maze to compare the improving memorial effects of (±), (−) clausenamide. The drugs were given orally once to animals before experiment in step-down and step-through tests. The water maze test lasted for 5 days in succession. The results were expressed as latency and errors number.

[4] = system: animals with anisodine-induced memory impairment; assay: step-through test, memory impairment induced by anisodine; format: in vivo
From the text: as §1

[5] = system: β-AP (25-35)-treated rats; assay: one trial passive avoidance of β-AP (25-35)-treated rats; format: in vivo; settings: β-AP-treated + vehicle, n = 8, MEAN ± S.E.M.
A β 25-35 treated rats = assay: Morris water maze, A β 25-35 induced impairment of memory; format: in vivo; settings: A β 25-35 alone
From the text: Pathological features of Alzheimer's disease (AD) include extensive neuronal loss and the presence of numerous neurofibrillary tangles and senile plaques in the brain. The senile plaques contain amyloid fibrils derived from a 39-43 amino acids peptide referred to as β-amyloid or A β which can produce neurotoxicity. A β 25-35 poccesses the similar neurotoxicity and ability of self-aggregation as A β 1-42. Administrated aggregated A β 25-35 into rat's lateral cerebral ventricle induced memory impairment in Morris water maze.
With increasing of training days, the initial heading angle became small. On the 3th day, the initial heading angle of A β group was larger than control. […] (see Tab.3)
There are four strategies for finding platform in Morris water maze: random, circle, taxis and line. In the beginning of training the search strategies for finding target is mainly circle and random, with the increasing of training, the percentage of the two strategies declined gradually, Beginning from the 3th day, declining speed in control and (−) clausenamide group was faster than A β,(+) clausenamide and piracetam groups.

animals = assay: memory in water maze test; format: in vivo
From the text: as §1

[6] = system: dentate gyrus granule cells; assay: basal synaptic transmission / LTP in dentate gyrus of hippocampus in anesthetized rats (population spike amplitude); format: in vivo; settings: for decrease of PS amplitude compared with that of (−) clausenamide: 60 min
From the text: Drugs or vehicle injection were delivered via cannula in the lateral cerebral ventricle at final concentration of 2×10^−6 mol/L. The population spike (PS) amplitude was employed as an indication of the level of excitation of the granular cell population in the dentate gyrus. To obtain this measurement, an evoked response was generated in the dentate gyrus granule cell layer by stimulating the pp at low freguency (0.033 Hz) with. single square wave pulses of 0.15 ms duration The LTP formation must accord the following creteria: The PS amplitude increased is over 30% and this high PS amplitude can persist for 40 min.

[7] = anisodine + drug 10 mg/kg (Tab 7)
[8] = anisodine + drug 50 mg/kg (Tab 7)

Row | Compound | frequency of colonies of NSC vs control group at 6 weeks (in words) [1] | Colonies, 6 weeks [1] | Colonies, 4 weeks [1] | Colonies, 3 weeks [1] | PSA (%), 15 min [2] [%] | PSA (%), 30 min [2] [%] | PSA (%), 60 min [2] [%] | other results
1 | CN1C(=O)[C@@H](O)[C@@H]([C@H](O)c2ccccc2)[C@H]1c1ccccc1 [(−)epineoclausenamide, 3S4R5S6S(−)epineoclausenamide] | significantly difference | 32.50 ± 7.05 | 36.75 ± 7.59 | 58.00 ± 13.02 |  |  |  | 
2 | CN1C(=O)[C@@H](O)[C@H]([C@@H](O)c2ccccc2)[C@H]1c1ccccc1 [(+)cisclausenamide, 3S4S5S6R (+)cisclausenamide] |  |  |  |  | 87.3 ± 4.4 | 102.9 ± 5.9 | 122.5 ± 14.5 | 
3 | CN1C(=O)[C@@H](O)[C@@H]([C@@H](O)c2ccccc2)[C@@H]1c1ccccc1 [(−)epiclausenamide, 3S4R5R6R (−)epiclausenamide] |  |  |  |  | 97.8 ± 21.7 | 91.2 ± 22.5 | 117.3 ± 22.5 | 
4 | CN1C(=O)[C@H](O)[C@H]([C@@H](O)c2ccccc2)[C@@H]1c1ccccc1 [(+)epineoclausenamide, 3R4S5R6R(+)epineoclausen amide] | not any difference | 26.00 ± 2.94 | 38.50 ± 5.02 | 49.75 ± 10.26 |  |  |  | 
5 | CN1[C@@H]2CC(OC(=O)[C@@](O)(CO)c3ccccc3)C[C@H]1[C@@H]1O[C@@H]12 (stereo partly drawn) [Anisodine, reference compound] |  |  |  |  |  |  |  | Errors number ([3]; anisodine group alone, 10 animals): 15.9 ± 11.3; Error number ([4]; anisodine 10 mg/kg alone, 0.9% Nacl 2.0 ± 3.8 (Tab 7)): 14.1 ± 8.9; Latencies ([4]; anisodine 10 mg/kg alone, 0.9% Nacl 152.1 ± 64.2, N = 10 (Tab 7)): 35.8 ± 76.4 s
6 | CN1C(=O)[C@H](O)[C@@H]([C@@H](O)c2ccccc2)[C@H]1c1ccccc1 [(+)cisneoclausenamide, 3R4R5S6R (+)cisneoclausenamide] | not any difference | 24.00 ± 4.69 | 42.50 ± 10.01 | 47.00 ± 9.03 | 135.0 ± 12.9 | 150.9 ± 19.9 | 192.3 ± 22.4 | 
7 | A β 25-35: β-amyloid fragment with neurotoxicity and self-aggregation like A β 1-42; icv injection induces memory impairment (GSNKGAIIGLM; Amyloid-beta protein 42; UniProt P05067 696-706, looked up, fragment) |  |  |  |  |  |  |  | Number of error, Acquisition ([5]; sham-operated + vehicle 0.3 ± 0.12): 0.9 ± 0.33; Number of error, Training ([5]; sham-operated + vehicle 1.6 ± 0.42): 2.6 ± 0.71; initial heading angle, training day 5 (A β 25-35 treated rats; control 15.4 ± 20.4): 46.7 ± 19.4; initial heading angle, training day 4 (A β 25-35 treated rats; control 29.6 ± 10.7): 60.6 ± 23.8; initial heading angle, training day 3 (A β 25-35 treated rats; control 47.3 ± 15.1): 73.6 ± 20.3; initial heading angle, training day 2 (A β 25-35 treated rats; control 76.8 ± 29.8): 98.7 ± 30.4; initial heading angle, training day 1 (A β 25-35 treated rats; control 93.6 ± 34.6): 106.3 ± 29.8
8 | CN1C(=O)[C@H](O)[C@@H]([C@H](O)c2ccccc2)[C@@H]1c1ccccc1 [(−)cisclausenamide, 3R4R5R6S (−)cisclausenamide] |  |  |  |  | 126.2 ± 2.3 | 141.2 ± 8.6 | 205.4 ± 24.7 | 
9 | CN1C(=O)[C@H](O)[C@H]([C@H](O)c2ccccc2)[C@H]1c1ccccc1 [(+)epiclausenamide, 3R4S5S6S (+)epiclausenamide] |  |  |  |  | 136.0 ± 22.8 | 147.5 ± 15.0 | 207.8 ± 12.8 | 
10 | CN1C(=O)[C@@H](O)[C@H]([C@H](O)c2ccccc2)[C@@H]1c1ccccc1 [(−)cisneoclausenamide, 3S4S5R6S (−)cisneoclausenamide] | significantly difference | 33.50 ± 4.20 | 35.25 ± 7.46 | 49.50 ± 5.43 | 94.1 ± 6.7 | 98.2 ± 6.6 | 94.9 | 
11 | Racemic clausenamide [(±) clausenamide, reference compound] |  |  |  |  |  |  |  | Lalencies reaching platform, 3rd day (animals; 10 mg/kg): 23.9 ± 22.6 s; Lalencies reaching platform, 4th day (animals; 10 mg/kg): 17.1 ± 14.3 s; Lalencies reaching platform, Second day (animals; 10 mg/kg): 35.8 ± 35.2 s; Lalencies reaching platform, 3rd day (animals; 50 mg/kg): 25.7 ± 13.8 s; Lalencies reaching platform, 4th day (animals; 50 mg/kg): 14.6 ± 10.4 s; Lalencies reaching platform, Second day (animals; 50 mg/kg): 36.6 ± 37.0 s; Errors number ([3]; anisodine + drug 10 mg/kg): 16.6 ± 23.9; Errors number ([3]; anisodine + drug 100 mg/kg): 9.11 ± 3.8; Error number [4, 7]: 11.3 ± 21.5; Latencies [4, 7]: 43.0 ± 65.8 s; Error number [4, 8]: 14.4 ± 12.3; Latencies [4, 8]: 79.9 ± 63.6 s; effect on PS amplitude (in words) ([6]; 2 μM to 10 μM): inhibitory effect on PS amplitude; decrease of PS amplitude compared with that of (−) clausenamide ([6]; first of the two concentrations (2 μM)): 44%; decrease of PS amplitude compared with that of (−) clausenamide ([6]; second of the two concentrations (10 μM)): 55%; LTP formation (PS amplitude increase over 30% persisting 40 min) ([6]; (−) at 2×10^−6 mol/L, (±) up to 5 times that): could not induce LTP
